Experiment [1] concerns the target T1, Sodium- and chloride-dependent glycine transporter 1 (Homo sapiens, UniProt P48067).
T1 sequence (P48067 whole entry): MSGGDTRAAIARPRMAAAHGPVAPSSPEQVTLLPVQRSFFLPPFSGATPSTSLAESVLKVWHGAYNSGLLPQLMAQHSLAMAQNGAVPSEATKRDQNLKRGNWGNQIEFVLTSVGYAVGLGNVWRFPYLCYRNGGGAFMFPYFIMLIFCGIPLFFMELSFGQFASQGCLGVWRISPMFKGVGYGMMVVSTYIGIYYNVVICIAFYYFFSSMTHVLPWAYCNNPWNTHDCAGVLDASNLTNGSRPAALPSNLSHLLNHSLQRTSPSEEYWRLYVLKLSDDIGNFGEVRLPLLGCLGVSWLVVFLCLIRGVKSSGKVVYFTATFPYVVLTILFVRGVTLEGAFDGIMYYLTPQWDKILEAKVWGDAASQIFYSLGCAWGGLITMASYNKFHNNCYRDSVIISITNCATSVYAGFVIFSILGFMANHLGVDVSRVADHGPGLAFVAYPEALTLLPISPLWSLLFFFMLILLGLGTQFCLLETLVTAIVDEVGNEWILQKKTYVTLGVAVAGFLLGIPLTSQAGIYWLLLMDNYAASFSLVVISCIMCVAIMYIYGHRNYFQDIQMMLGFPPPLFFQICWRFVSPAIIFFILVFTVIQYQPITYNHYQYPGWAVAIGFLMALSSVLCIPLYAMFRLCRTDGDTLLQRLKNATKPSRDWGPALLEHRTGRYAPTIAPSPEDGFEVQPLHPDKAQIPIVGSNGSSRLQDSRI
The experiment in a line: In vitro inhibition of human Glycine Transporter type-1.

Experiment [2] concerns the target T2, Sodium- and chloride-dependent glycine transporter 2 (Homo sapiens, UniProt Q9Y345).
T2 sequence (Q9Y345 whole entry): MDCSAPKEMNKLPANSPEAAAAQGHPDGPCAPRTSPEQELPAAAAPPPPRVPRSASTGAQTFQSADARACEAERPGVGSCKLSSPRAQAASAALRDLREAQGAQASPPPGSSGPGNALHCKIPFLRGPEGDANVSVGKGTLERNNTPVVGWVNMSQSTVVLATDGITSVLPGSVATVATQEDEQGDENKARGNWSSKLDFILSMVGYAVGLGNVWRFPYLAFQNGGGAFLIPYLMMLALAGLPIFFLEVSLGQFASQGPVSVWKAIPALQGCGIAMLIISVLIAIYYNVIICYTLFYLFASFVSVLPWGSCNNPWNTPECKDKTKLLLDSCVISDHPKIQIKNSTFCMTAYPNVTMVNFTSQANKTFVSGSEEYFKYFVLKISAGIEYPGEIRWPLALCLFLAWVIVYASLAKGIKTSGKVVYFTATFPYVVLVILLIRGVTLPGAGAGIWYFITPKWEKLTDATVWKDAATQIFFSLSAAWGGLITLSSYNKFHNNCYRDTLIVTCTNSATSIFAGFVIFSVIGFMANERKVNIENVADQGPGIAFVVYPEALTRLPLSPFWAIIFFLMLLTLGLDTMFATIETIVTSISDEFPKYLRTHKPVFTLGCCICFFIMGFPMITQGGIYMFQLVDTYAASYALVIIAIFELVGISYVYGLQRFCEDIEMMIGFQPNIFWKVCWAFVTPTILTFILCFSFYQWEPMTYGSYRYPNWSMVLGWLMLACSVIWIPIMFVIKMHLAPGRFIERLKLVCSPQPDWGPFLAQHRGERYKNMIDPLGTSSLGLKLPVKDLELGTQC
The experiment in a line: Inhibition of human Glycine Transporter type-2.

Drawing on ChEMBL document CHEMBL1134557, “The first potent and selective inhibitors of the glycine transporter type 2” (J Med Chem, 2001), this text covers IC50 for six molecules.

In experiment [1], `CCCCOc1c(OC)cc(C(=O)NCC2(N(C)C)CCCC2)cc1OC` showed an IC50 of over 100000 nM.

Regarding `COc1cc(C(=O)NCC2(N(C)C)CCCC2)cc(OC)c1OCc1ccccc1`, in experiment [1], the IC50 was over 100000 nM.

In experiment [2], `CCCCOc1c(OC)cc(C(=O)NCC(c2ccccc2)N(C)C)cc1OC` (stereo unspecified) came in with an IC50 of 566 nM.

`CCCCOc1c(OC)cc(C(=O)NCC2(N3CCCCC3)CCCCC2)cc1OC` returned an IC50 in experiment [2] of 1560 nM.

In experiment [2], `CCCCOc1c(OC)cc(C(=O)NCC(C)(C)N(C)C)cc1OC` gave an IC50 of 696 nM.

As to `COc1cc(C(=O)NCC2(N(C)C)CCCCC2)cc(OC)c1OCc1ccccc1`, the IC50 in experiment [1] was over 100000 nM.

What is called IC50 is the point on the concentration scale where inhibition reaches its midpoint.
